Source: ChEMBL document CHEMBL4622982, “Discovery and Biological Evaluation of a Novel Highly Potent Selective Butyrylcholinsterase Inhibitor” (J Med Chem, 2020)
The source made the active and inactive calls. No cut-off for these calls is given here.

Legend:
[1] = target: Cholinesterase (Equus caballus) (UniProt P81908); assay: Inhibition of equine serum BChE at 10 uM pre-incubated for 5 mins before butyrylthiocholine iodide substrate addition and measured after 2 mins
[2] = target: Acetylcholinesterase (Electrophorus electricus) (UniProt O42275); assay: Inhibition of Electrophorus electricus AChE at 10 uM pre-incubated for 5 mins before acetylthiocholine iodide substrate addition and measured after 2 mins
Acetylcholinesterase (Electrophorus electricus), sequence (O42275 24-633 limits assumed): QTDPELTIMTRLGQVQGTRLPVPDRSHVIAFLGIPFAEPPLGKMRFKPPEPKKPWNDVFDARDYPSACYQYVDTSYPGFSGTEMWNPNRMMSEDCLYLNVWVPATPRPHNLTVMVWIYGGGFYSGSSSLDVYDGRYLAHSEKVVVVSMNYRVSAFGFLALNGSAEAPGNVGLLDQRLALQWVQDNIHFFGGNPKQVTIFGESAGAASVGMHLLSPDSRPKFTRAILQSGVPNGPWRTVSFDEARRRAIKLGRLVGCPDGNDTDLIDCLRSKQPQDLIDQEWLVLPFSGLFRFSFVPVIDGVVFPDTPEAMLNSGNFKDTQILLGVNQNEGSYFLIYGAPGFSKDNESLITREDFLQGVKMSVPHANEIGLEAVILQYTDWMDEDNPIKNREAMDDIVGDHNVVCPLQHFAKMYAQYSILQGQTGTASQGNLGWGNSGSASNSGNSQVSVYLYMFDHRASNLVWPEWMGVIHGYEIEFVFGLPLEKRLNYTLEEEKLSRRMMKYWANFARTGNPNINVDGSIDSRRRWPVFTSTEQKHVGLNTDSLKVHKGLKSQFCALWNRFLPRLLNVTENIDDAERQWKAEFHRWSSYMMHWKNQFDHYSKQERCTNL

[3] = Effective permeability by PAMPA-BBB penetration assay; type: ADME; details: read-out: Peff
[4] = test system: PC-12; assay: Toxicity in rat PC12 cells assessed as reduction in cell viability at 100 uM incubated for 24 hrs by MTT assay relative to control; type: cell-based; details: pc-12, 24 h
[5] = test system: PC-12; assay: Toxicity in rat PC12 cells assessed as reduction in cell viability at 2.5 to 50 uM incubated for 24 hrs by MTT assay; type: cell-based; details: pc-12, 24 h
[6] = test system: Mus musculus; assay: Improvement in cognition in ICR mouse model of scopolamine-induced cognition-impairment assessed as improvement in trajectories to platform at 15 to 30 mg/kg, po dosed 30 mins before scopolamine challenge for 10 days by Morris water maze test; type: functional, organism-based
[7] = Selectivity index, ratio of inhibition of Electrophorus electricus AChE pre-incubated for 5 mins before acetylthiocholine iodide substrate addition and measured after 2 mins to IC50 for inhibition of equine serum BChE pre-incubated for 5 mins before butyrylthiocholine iodide substrate addition and measured after 2 mins
[8] = Intrinsic clearance in human liver microsomes at 1 uM in presence of NADPH by LC-MS/MS analysis; type: ADME, Microsome; details: read-out: CLH
[9] = test system: Mus musculus; assay: Improvement in cognition in ICR mouse model of Abeta(1-42)-induced cognition-impairment assessed as improvement in trajectories to platform at 15 mg/kg, po dosed from days 3 to 14 by Morris water maze test; type: functional, organism-based
[10] = test system: Mus musculus; assay: Improvement in cognition in ICR mouse model of Abeta(1-42)-induced cognition-impairment assessed as escape latency time at 15 mg/kg, po dosed from days 3 to 14 by Morris water maze test (reference value: 48.9 secs); type: functional
[11] = Toxicity in ICR mouse assessed as induction of animal death at 1 mg/kg, ig; type: organism-based; details: in vivo, po
[12] = target: Acetylcholinesterase (Electrophorus electricus, UniProt O42275); assay: Inhibition of Electrophorus electricus AChE pre-incubated for 5 mins before acetylthiocholine iodide substrate addition and measured after 2 mins
Acetylcholinesterase, sequence (O42275 whole entry): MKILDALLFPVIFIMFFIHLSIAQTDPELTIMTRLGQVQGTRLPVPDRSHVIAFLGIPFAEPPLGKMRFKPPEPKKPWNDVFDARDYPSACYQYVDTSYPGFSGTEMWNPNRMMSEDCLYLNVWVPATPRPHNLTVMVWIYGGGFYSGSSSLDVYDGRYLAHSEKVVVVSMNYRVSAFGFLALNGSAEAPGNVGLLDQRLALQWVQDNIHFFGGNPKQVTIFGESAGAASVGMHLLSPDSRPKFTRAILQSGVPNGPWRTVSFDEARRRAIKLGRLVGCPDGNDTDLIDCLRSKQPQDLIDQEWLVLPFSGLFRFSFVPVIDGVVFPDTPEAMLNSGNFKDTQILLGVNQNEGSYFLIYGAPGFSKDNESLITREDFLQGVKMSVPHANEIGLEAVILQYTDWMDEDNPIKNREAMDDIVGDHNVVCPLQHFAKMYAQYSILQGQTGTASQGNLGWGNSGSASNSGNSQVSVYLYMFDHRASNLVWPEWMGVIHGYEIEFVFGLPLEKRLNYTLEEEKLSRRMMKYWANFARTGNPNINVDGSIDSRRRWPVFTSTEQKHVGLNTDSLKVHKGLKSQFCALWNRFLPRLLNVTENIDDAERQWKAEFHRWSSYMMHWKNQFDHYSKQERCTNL

[13] = target: T1, Cholinesterase (Equus caballus, UniProt P81908); assay: Noncompetitive inhibition of equine serum BChE pre-incubated for 5 mins before butyrylthiocholine iodide substrate addition and measured after 2 mins by Lineweaver-Burk plot analysis
T1 sequence (P81908 whole entry): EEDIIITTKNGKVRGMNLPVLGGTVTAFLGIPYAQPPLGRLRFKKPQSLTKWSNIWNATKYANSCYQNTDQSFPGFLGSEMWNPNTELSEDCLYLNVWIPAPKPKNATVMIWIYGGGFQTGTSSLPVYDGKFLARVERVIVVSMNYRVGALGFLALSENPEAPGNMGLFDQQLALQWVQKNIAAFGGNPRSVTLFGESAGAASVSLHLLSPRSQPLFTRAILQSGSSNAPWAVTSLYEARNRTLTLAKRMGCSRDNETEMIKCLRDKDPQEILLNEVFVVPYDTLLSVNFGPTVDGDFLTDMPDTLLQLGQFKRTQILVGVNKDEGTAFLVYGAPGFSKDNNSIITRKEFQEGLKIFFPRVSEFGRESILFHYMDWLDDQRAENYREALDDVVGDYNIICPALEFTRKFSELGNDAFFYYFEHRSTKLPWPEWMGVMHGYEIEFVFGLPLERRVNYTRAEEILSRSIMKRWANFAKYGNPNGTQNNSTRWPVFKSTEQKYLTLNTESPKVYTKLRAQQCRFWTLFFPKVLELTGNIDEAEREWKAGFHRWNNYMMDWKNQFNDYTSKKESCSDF

[14] = test system: L02; assay: Toxicity in human L02 cells assessed as reduction in cell viability at 2.5 to 100 uM incubated for 24 hrs by MTT assay; type: cell-based; details: l02, 24 h
[15] = Toxicity in ICR mouse assessed as induction of abnormal behaviors at 1 mg/kg, ig; type: organism-based; details: in vivo, po
[16] = test system: HepG2; assay: Toxicity in human HepG2 cells assessed as toxic dose for reduction in cell viability incubated for 24 hrs by MTT assay; type: cell-based; details: hepg2, 24 h
[17] = Toxicity in ICR mouse model of Abeta(1-42)-induced cognition-impairment assessed as effect on body weight at 15 mg/kg, po dosed from days 3 to 14; type: organism-based; details: in vivo
[18] = Hepatotoxicity in ICR mouse assessed as induction of pericentral necrosis at 30 mg/kg, ig measured after 8 to 36 hrs post dose by immunohistochemical staining assay; type: toxicity, organism-based; details: in vivo, po
[19] = test system: SH-SY5Y; assay: Toxicity in human SH-SY5Y cells assessed as reduction in cell viability at 2.5 to 50 uM incubated for 24 hrs by MTT assay; type: cell-based
[20] = target: T1, Cholinesterase; assay: Inhibition of equine serum BChE pre-incubated for 5 mins before butyrylthiocholine iodide substrate addition and measured after 2 mins
[21] = test system: SH-SY5Y; assay: Neuroprotection against Abeta(1-42)-induced cytotoxicity in human SH-SY5Y cells assessed as increase in cell viability incubated for 1 hr before Abeta(1-42) challenge and measured after 24 hrs by MTT assay; type: functional, cell-based
[22] = test system: Mus musculus; assay: Reduction in the Abeta(1-42) peptide level in ICR mouse model of Abeta(1-42)-induced cognition-impairment at 15 mg/kg, po dosed from days 3 to 14 by ELISA relative to control; type: functional; set-up: scale not given: the % may be the effect or the level left
[23] = Toxicity in ICR mouse model of scopolamine-induced cognition-impairment assessed as induction of death at 15 to 30 mg/kg, po dosed 30 mins before scopolamine challenge for 10 days; type: organism-based; details: in vivo
[24] = Toxicity in ICR mouse assessed as effect on body weight at 1 mg/kg, ig; type: organism-based; details: in vivo, po
[25] = Half life in human liver microsomes at 1 uM in presence of NADPH by LC-MS/MS analysis; type: ADME, Microsome
[26] = test system: Mus musculus; assay: Improvement in cognition in ICR mouse model of Abeta(1-42)-induced cognition-impairment assessed as spontaneous alternation performance level at 15 mg/kg, po dosed from days 3 to 14 and measured on day 15 by Y maze test (reference value: 34.43%); type: functional
[27] = Hepatotoxicity in ICR mouse assessed as induction of fatty degeneration of hepatocytes of surrounding intermediate and periportal zones at 30 mg/kg, ig measured after 8 to 36 hrs post dose by immunohistochemical staining assay; type: toxicity, organism-based; details: in vivo, po
[28] = target: Cholinesterase (Equus caballus) (UniProt P81908); assay: Noncompetitive inhibition of equine serum BChE assessed as reduction in enzymatic velocity pre-incubated for 5 mins before butyrylthiocholine iodide substrate addition and measured after 2 mins by Lineweaver-Burk plot analysis
[29] = test system: SH-SY5Y; assay: Toxicity in human SH-SY5Y cells assessed as reduction in cell viability at 100 uM incubated for 24 hrs by MTT assay relative to control; type: cell-based
[30] = Toxicity in ICR mouse model of scopolamine-induced cognition-impairment assessed as induction of behavioral abnormities at 15 to 30 mg/kg, po dosed 30 mins before scopolamine challenge for 10 days; type: organism-based; details: in vivo
[31] = target: Cholinesterase (Homo sapiens, UniProt P06276); assay: Inhibition of human BChE pre-incubated for 5 mins before butyrylthiocholine iodide substrate addition and measured after 2 mins
Cholinesterase (Homo sapiens, UniProt P06276), sequence (P06276 whole entry): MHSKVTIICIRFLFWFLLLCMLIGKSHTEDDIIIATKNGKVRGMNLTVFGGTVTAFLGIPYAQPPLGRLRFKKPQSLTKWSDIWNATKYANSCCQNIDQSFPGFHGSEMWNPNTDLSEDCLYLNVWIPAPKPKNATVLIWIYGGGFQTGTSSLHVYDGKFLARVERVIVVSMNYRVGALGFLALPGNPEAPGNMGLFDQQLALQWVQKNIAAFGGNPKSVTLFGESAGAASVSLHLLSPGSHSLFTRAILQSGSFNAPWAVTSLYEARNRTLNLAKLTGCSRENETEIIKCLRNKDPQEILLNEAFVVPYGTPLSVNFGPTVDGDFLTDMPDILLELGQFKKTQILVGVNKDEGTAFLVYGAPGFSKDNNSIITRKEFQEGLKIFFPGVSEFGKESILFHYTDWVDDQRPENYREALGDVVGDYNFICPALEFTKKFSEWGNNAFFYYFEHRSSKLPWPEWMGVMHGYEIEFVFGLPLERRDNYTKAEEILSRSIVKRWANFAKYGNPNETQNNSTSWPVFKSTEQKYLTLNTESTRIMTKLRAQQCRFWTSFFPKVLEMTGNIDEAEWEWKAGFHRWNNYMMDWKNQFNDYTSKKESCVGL

[32] = test system: Mus musculus; assay: Improvement in cognition in ICR mouse model of scopolamine-induced cognition-impairment assessed as improvement in escape latency at 15 to 30 mg/kg, po dosed 30 mins before scopolamine challenge for 10 days by Morris water maze test; type: functional, organism-based

Cholinesterase (Equus caballus), sequence (P81908 whole entry): as the sequence (P81908 whole entry) above

`CN(CCc1noc(-c2cc3ccccc3[nH]2)n1)C(=O)c1ccc(C(C)(C)C)cc1` gave an inhibition [1] of 20.3% and an inhibition [2] of 51.6%.
`Cc1ccc(-c2nc3ccccc3o2)cc1NCc1cc(Cc2ccccc2)ccc1O` showed an inhibition [1] of 8.49% and an inhibition [2] of 6.25%.
For `CN(CCc1noc(-c2cc3ccccc3[nH]2)n1)C(=O)c1ccc(N(C)C)cc1`, the inhibition [1] was 35.4% and the inhibition [2] was 39.4%.
`C[C@]12CCC(=O)C=C1CC[C@@H]1[C@@H]2C(=O)C[C@]2(C)C(=O)CC[C@@H]12` [ADRENOTERONE] showed a Papp [3] of 6.05 ×10⁻⁶ cm/s.
`Clc1cccc(Cl)c1N=C1NCCN1` [CLONIDINE] gave a Papp [3] of 8.8 ×10⁻⁶ cm/s.
In the case of `CC(=O)[C@H]1CC[C@H]2[C@@H]3CCC4=CC(=O)CC[C@]4(C)[C@H]3CC[C@]12C` [PROGESTERONE], the Papp [3] is reported as 15.5 ×10⁻⁶ cm/s.
In the case of `CN1C(C(=O)Nc2ccccn2)=C(O)c2ccccc2S1(=O)=O` [PIROXICAM], the Papp [3] is reported as 1.69 ×10⁻⁶ cm/s.
`COc1cc2c(cc1NC(=O)C(=O)c1c(-c3ccccc3)[nH]c3ccccc13)oc1ccccc12` showed an inhibition [1] of 0.73% and an inhibition [2] of -4.57%.
In the case of `Cc1ccc2cc(NC(=O)Cn3c(-c4nonc4N)nc4ccccc43)ccc2n1`, the Activity [4] is reported as 50%, the Activity [5] is reported as “Non-Toxic” and the Activity [6] is reported as “Dose-dependent effect”. For the same compound, the Ratio IC50 [7] was > 500, the CLint scaled at 1 µM [8] was 41.5 mL/min/kg and the Activity [9] was “Active”. The Time [10] was 8.83 s, the Activity [11] was “Non-Toxic” and the IC50 [12] was > 100 µM. The Ki [13] was 0.232 µM, the Activity [14] was “Non-Toxic” and the Activity [15] was “Non-Toxic”. For the same compound, the Activity [16] was > 20 µM, the Activity [17] was “Non-Toxic” and the Activity [18] was “Non-Toxic”. For the same compound, the Activity [19] was “Non-Toxic”, the IC50 [20] was 0.18 µM and the inhibition [1] was 96.5%. For the same compound, the Activity [21] was “Dose-dependent effect”, the Activity [22] was 40.56% and the Activity [23] was “Non-Toxic”. The Activity [24] was “Non-Toxic”, the half-life at 1 µM [25] was 41.9 min and the Activity [26] was 63.44%. The Activity [27] was “Non-Toxic”, the inhibition [28] was “Dose-dependent effect” and the Activity [29] was 50%. For the same compound, the Activity [30] was “Non-Toxic”, the IC50 [31] was 0.32 µM and the Activity [32] was “Dose-dependent effect”. It also gave an inhibition [2] of 15.3% and a Papp [3] of 7.84 ×10⁻⁶ cm/s.
In the case of `CN(C)CCCN1c2ccccc2Sc2ccc(Cl)cc21` [CHLORPROMAZINE], the Papp [3] is reported as 12.4 ×10⁻⁶ cm/s.
In the case of `O=C(c1ccc(C(F)(F)F)cc1)N(CCc1nc(-c2ccc(C(F)(F)F)cc2)no1)Cc1ccco1`, the inhibition [2] is reported as -0.61%.
In the case of `CCCN(Cc1csc(COc2ccc(C)cc2)n1)C(=O)c1ccc2c(c1)OCO2`, the IC50 [20] is reported as 14.3 µM, the inhibition [1] is reported as 54.8% and the inhibition [2] is reported as -0.26%.
Compound `Cc1ccc(OCc2nc(CN(CC(C)C)C(=O)c3ccc4c(c3)OCO4)cs2)cc1` has an IC50 [12] of 11 µM, an IC50 [20] of 17.7 µM and an inhibition [1] of 54%. For the same compound, the inhibition [2] was -6.37%.
Compound `COc1ccc(-c2noc(CN(C(=O)c3ccc4c(c3)OCO4)C3CCCCC3)n2)cc1` has an inhibition [1] of 4.33% and an inhibition [2] of -3.2%.
For `O=C(c1ccc(F)cc1)C1CCN(CCn2c(=O)[nH]c3ccccc3c2=O)CC1` [KETANSERIN], the CLint scaled at 1 µM [8] was 55.3 mL/min/kg and the half-life at 1 µM [25] was 31.4 min.
Work on `COc1ccc(-c2cccc(-n3cncc3C(=O)N3Cc4ccccc4C3)c2)cc1OC` yielded an IC50 [20] of 17.3 µM, an inhibition [1] of 53.4% and an inhibition [2] of 6.29%.
`CCc1noc(-c2cnc3nc(C)ccc3c2Nc2ccc3c(c2)OCCO3)n1` gave an IC50 [12] of 1.56 µM, an inhibition [1] of 1.63% and an inhibition [2] of 50.6%.
For `COCCN(Cc1csc(COc2ccc(C)cc2)n1)C(=O)c1ccc(OC)cc1`, the inhibition [1] was 7.17% and the inhibition [2] was 5.79%.
In the case of `NCCc1ccc(O)c(O)c1` [DOPAMINE], the Papp [3] is reported as 3.3 ×10⁻⁶ cm/s.
`COc1ccc(C2=C(Nc3ccc4oc5ccccc5c4c3)c3ccccc3C2=O)cc1` gave an inhibition [1] of 4.03% and an inhibition [2] of 42.6%.
For `C[C@]12CC[C@@H]3c4ccc(O)cc4CC[C@H]3[C@@H]1CC[C@@H]2O` [ESTRADIOL], the Papp [3] was 20.5 ×10⁻⁶ cm/s.
With `COc1cc2c(cc1OC)C(=O)C(CC1CCN(Cc3ccccc3)CC1)C2` (stereo not drawn) [DONEPEZIL] the Activity [9] was “Active”, the Time [10] was 15.3 s and the Activity [22] was 24.08%. For the same compound, the Activity [26] was 65.23%.
